Assay results from patent US12514836B2, “Composition for prevention and treatment of myopathy” (ONCOCROSS CO., LTD., priority 2020, dated 2026).

Legend:
[1] = system: C2C12 cells; assay: Myoblast differentiation of C2C12 cells seen by microscope under differentiation-suppressing condition (H2O2); format: cell-based, mouse; conditions: 10 μM, 500 μM H2O2, FIG. 3
[2] = system: 4-EBP; assay: Western blot of AKT/mTOR pathway sub-signal 4-EBP in C2C12 cells; format: cell-based, mouse; conditions: 10 μM, 500 μM H2O2, FIG. 4
Method: (§1) At this time, 500 μM of H2O2 (hydrogen peroxide) was treated with the differentiation medium to create conditions for inhibiting differentiation. Thereafter, the differentiation medium containing H2O2 and the drugs were exchanged every 2 days. After 4 to 6 days, when the shape of myotubes was confirmed, the myotubes were added with 80 μl of a lysis buffer and then vortexed, and centrifuged for 10 minutes at 14000 rpm, and the obtained proteins were added with a 5× sample buffer and reacted in 95° C. boiling water for 5 minutes. 8 μg of the reacted proteins was loaded on 8% and 12% SDS-PAGE gels, developed, and then transferred to a membrane. The membrane was blocked with PBST containing 5% skim milk at room temperature for 1 hour. The membrane was washed with 1×PBST, added with a primary antibody diluted at 1:1000, and then O/N reacted at 4° C. The next day, the membrane was washed with 1×PBST three times every 10 minutes, added with a secondary antibody diluted at 1:5000 in PBST containing 5% skim milk, and then reacted at room temperature for 1 hour. The membrane was washed with 1×PBST three times every 10 minutes, reacted in an enhanced chemiluminescent solution (ECL), and then exposed to an X-ray film to obtain a Western blot analysis result.

[3] = system: MSCs derived from MDX mice; assay: Proliferation of muscle satellite cells (MSCs) derived from MDX mice; format: cell-based, mouse; conditions: 100 μM, 48 hours, vs PBS control, FIG. 6
Excerpt: In MDX mice (Jackso lab, stock no. 001801) (including point mutations in a DMD gene), as the most popular experimental model for testing Duchenne muscular dystrophy, older MDX mice over 40 weeks of age that maintained a homogenous transgenic state through mating and breeding and wild-type mice (normal mice) were anesthetized with isoflurane and then both tibialis anterior (TA) muscles were punctured 30 times each with a 26 G syringe (Korea Vaccine, Cat no. 27-00024-01) to induce physical muscle destruction. On day 3 after inducing muscle destruction, the mice were sacrificed and the TA muscles were separated, washed with 1×PBS (137 mM NaCl, 2.7 mM KCl, 10 mM Na2HPO4, […]) twice, and then chopped for 5 minutes with a razor blade, added in serum-free DMEM (GE healthcare, Cat no. SH30243.01) diluted with collagenase II (ThermoFisher, Cat no. 17101015) to a concentration of 2 mg/ml and digested for 1 hour. Thereafter, a supernatant was removed by centrifugation at 300×g for 5 minutes, washed once with serum-free DMEM, and passed through a 70 μm strainer. […] In the experiment, the average and each standard deviation of measurement results of three or more times were obtained, and significance with the control was determined through T testing (*: […].<0.001).

[4] = system: SOD1 G93A mice; assay: Duration of life of Lou Gehrig (ALS) animal model mice; format: in vivo, mouse
Excerpt: The presence of symptoms and mortality were confirmed through a daily behavioral test set.

[5] = system: p70S6K; assay: Western blot of AKT/mTOR pathway sub-signal p70S6K in C2C12 cells; format: cell-based, mouse; conditions: 10 μM, 500 μM H2O2, FIG. 4
Method: as §1

[6] = system: MHC and myogenin; assay: Western blot of myoblast differentiation markers in C2C12 cells; format: cell-based, mouse; conditions: 500 μM H2O2, vs DMSO group, FIG. 4
Method: as §1

Row | Structure (SMILES) | myoblast differentiation [1] | expression of 4-EBP compared to the control group (DMSO) [2] | proliferation of MSCs derived from MDX mice [3] | total median duration of life compared to the drug non-administered group ([4]; 30 mpk (combination each 30 mpk), intraperitoneally from 10 weeks old, FIG. 1) | prolongation of median duration of life after the appearance of Lou Gehrig's symptoms ([4]; 30 mpk intraperitoneally from 10 weeks old, non-administered group about 5 weeks, FIG. 2) | prolongation of duration of life converted to Lou Gehrig's patients ([4]; extrapolated: 5 weeks in mice taken as about 2 years median duration of life in patients) | expression of P70S6K [5] | expression levels of MHC and myogenin ([6]; 10 μM) | expression levels of MHC and myogenin ([6]; 5 μM)
1 | CC(C)(CO)[C@@H](O)C(=O)NCCC(=O)O [OC-504, calcium pantothenate] | significantly increased | increased | significantly promoted | increased statistically significantly | about 2 weeks | about 9.6 months | increased | increased | 
2 | CN(C)CCOC(c1ccccc1)c1ccccc1.Cn1c(=O)c2[nH]c(Cl)nc2n(C)c1=O [OC-501, dimenhydrinate] |  |  |  |  |  |  |  | increased | increased
